Read-outs that look alike come from different tables or passages of the source.
Columns and labels:
[1] = system: Aβ42; assay: γ-secretase-modulating activity, Method 2: Aβ42 Alphalisa in supernatant of SKNBE2 cells carrying APP 695-wild type (Table 3b); assay type: cell-based; conditions: overnight
Outline: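 Aβ42 in the supernatant was quantified by AlphaLISA sandwich (JRF/cAβ42/26 with JRF/AβN/25). Cells were wild-type APP695 SKNBE2, exposed to compound overnight at 37° C., 5% CO2. Data were normalised to untreated maximum and fitted with a four-parameter curve to give IC50.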

[2] = system: Aβtotal; assay: γ-secretase-modulating activity, Method 2: Aβtotal Alphalisa in supernatant of SKNBE2 cells carrying APP 695-wild type (Table 3b); assay type: cell-based; conditions: overnight, read-out: IC50 Aβtot
Outline: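 Secreted Aβtotal was quantified by AlphaLISA pairing an N-terminal antibody (JRF/AβN/25) with biotinylated mid-region 4G8. Wild-type APP 695 SKNBE2 cells received serially varied compound overnight at 37 °C; IC50 came from a 4-parameter nonlinear regression of percent of control against log dose.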

[3] = system: Aβ42; assay: In vivo efficacy, Method 1: brain soluble Aβ42 lowering 4 h after a single oral dose, ELISA (Table 4a); design: species or system mouse; conditions: dose 30 mg/kg oral dosing
Excerpt: (§1) To determine whether acute administration of an Aβ42 lowering agent would reduce Aβ42 levels in vivo, non-transgenic rodents, e.g. mice or rats were used. Alternatively, two to three month old Tg2576 mice expressing APP695 containing the “Swedish” variant can be used or a transgenic mouse model developed by Dr. Fred Van Leuven (K.U. Leuven, Belgium) and co-workers, with neuron-specific expression of a clinical mutant of the human amyloid precursor protein [V717I] (Moechars et al., 1999 J. Biol. Chem. 274, 6483). Young transgenic mice have high levels of Aβ in the brain but no detectable Aβ deposition. At approximately 6-8 months of age, the transgenic mice start to display spontaneous, progressive accumulation of β-amyloid (Aβ) in the brain, eventually resulting in amyloid plaques within the subiculum, hippocampus and cortex. Animals treated with the Aβ42 lowering agent were examined and compared to those untreated or treated with vehicle and brain levels of soluble Aβ42 and total Aβ would be quantitated by standard techniques, for example, using ELISA. Treatment periods varied from hours (h) to days and were adjusted based on the results of the Aβ42 lowering once a time course of onset of effect could be established.
(§2) A typical protocol for measuring Aβ42 lowering in vivo is shown but it is only one of many variations that could be used to optimize the levels of detectable Aβ. For example, Aβ42 lowering compounds were formulated in 20% of Captisol® (a sulfobutyl ether of β-cyclodextrin) in water or 20% hydroxypropyl cyclodextrin. The Aβ42 lowering agents were administered as a single oral dose or by any acceptable route of administration to overnight fasted animals. After 4 h, the animals were sacrificed and Aβ42 levels were analysed.
(§3) Blood was collected by decapitation and exsanguinations in EDTA-treated collection tubes. Blood was centrifuged at 1900 g for 10 minutes (min) at 4° C. and the plasma recovered and flash frozen for later analysis. The brain was removed from the cranium and hindbrain. The cerebellum was removed and the left and right hemisphere were separated. The left hemisphere was stored at −18° C. for quantitative analysis of test compound levels. The right hemisphere was rinsed with phosphate-buffered saline (PBS) buffer and immediately frozen on dry ice and stored at −80° C. until homogenization for biochemical assays.
(§4) Mouse brains were resuspended in 10 volumes of 0.4% DEA (diethylamine)/50 mM NaCl pH 10 (for non-transgenic animals) or 0.1% 3-[(3-cholamidopropyl)-dimethyl-ammonio]-1-propanesulfonate (CHAPS) in tris buffered saline (TBS) (for transgenic animals) containing protease inhibitors (Roche-11873580001 or 04693159001) per gram of tissue, e.g. for 0.158 g brain, add 1.58 ml of 0.4% DEA. All samples were sonicated for 30 seconds on ice at 20% power output (pulse mode). Homogenates were centrifuged at 221.300×g for 50 min. The resulting high speed supernatants were then transferred to fresh tubes and were optionally further purified before the next step. A portion of the supernatant was neutralized with 10% 0.5 M Tris-HCl and this was used to quantify Aβtotal.
The obtained supernatants were purified with Water Oasis HLB reverse phase columns (Waters Corp., Milford, Mass.) to remove non-specific immunoreactive material from the brain lysates prior subsequent Aβ detection. Using a vacuum manifold, all solutions were passed through the columns at a rate of approximately 1 ml per min, so the vacuum pressure was adjusted accordingly throughout the procedure. Columns were preconditioned with 1 ml of 100% MeOH, before equilibration with 1 ml of H2O, Non-neutralized brain lysates were loaded onto the columns. The loaded samples were then washed twice with the first wash performed with 1 ml of 5% MeOH, and the second wash with 1 ml of 30% MeOH. Finally, the Aβ was eluted from the columns and into 100×30 mm glass tubes, with a solution of 90% MeOH with 2% NH4OH. […]

[4] = system: Aβtotal; assay: In vivo efficacy, Method 1: brain soluble Aβtotal lowering 4 h after a single oral dose, ELISA (Table 4a); design: species or system mouse; conditions: dose 30 mg/kg oral dosing
Excerpt: as §1, §2, §3, §4
To quantify the amount of Aβ42 in the soluble fraction of the brain homogenates, commercially available Enzyme-Linked-Immunosorbent-Assay (ELISA) kits were used (e.g. Innotest® β-Amyloid(1-42), Innogenetics N.V., Ghent, Belgium). The Aβ42 ELISA was performed using the plate provided with the kit only. Briefly, the standards (a dilution of synthetic Aβ1-42) were prepared in 1.5 ml Eppendorf tube in Ultraculture, with final concentrations ranging from 25000 to 1.5 pg/ml. Samples, standards and blanks (60 μl) were added to the anti-Aβ42-coated plate (the capture antibody selectively recognizes the C-terminal end of the antigen). The plate was allowed to incubate overnight at 4° C. in order to allow formation of the antibody-amyloid complex. […]

IC50 ([1]; Homo sapiens) [nM]	IC50 ([2]; Homo sapiens) [nM]	IC50 [1] [nM]	IC50 [2] [nM]	SMILES	Aβ42 (% Ctrl) _Mean [3] [% Ctrl]	Aβtotal (% Ctrl) _Mean [4] [% Ctrl]
105	7940	–	–	COc1cc(-c2nc(-c3cccc(C(F)(F)F)c3)n(C(C)C)n2)ccc1-n1cnc(C)c1 [Compound 39]	17	0
–	–	135	> 10000	COc1nc(-c2nc(-c3cccc(C(F)(F)F)c3)n(C(C)C)n2)ccc1-n1cnc(C)c1.Cl.Cl [Compound 68]	29	−3
–	–	191	6760	COc1cc(-c2nc(C(C)C)n(-c3cccc(C(F)(F)F)c3)n2)ccc1-n1cnc(C)c1.Cl [Compound 32]	6	2
